This assay has as its target wild-type human cardiac sodium channel, hNav1.5 (Homo sapiens, UniProt Q14524). As to the kind of experiment: Late INa screening assay (automated whole cell patch clamp, PatchXpress). In kind it is cell-based. Conditions: for inhibition at 10 µM: compound at 10 μM, read-out: LateINa_10 uM (percent block of late INa); for inhibition at 10 µM / inhibition at 1 µM: HEK293 cells expressing hNav1.5, late INa generated with 10 μM Tefluthrin (or 50 nM ATX II); for inhibition at 1 µM: compound at 1 μM, read-out: LateINa_1 uM (percent block of late INa). As to the method: The late sodium current (Late INa) and peak sodium current (Peak INa) assays are performed on an automated electrophysiology platform, PatchXpress 7000A (MDS Analytical Technologies, Sunnyvale, Calif.), which uses the whole cell patch clamp technique to measure currents through the cell membrane of up to 16 cells at a time. The assay uses an HEK293 (human embryonic kidney) cell line heterologously expressing the wild-type human cardiac sodium channel, hNav1.5, purchased from Millipore (Billerica, Mass.). No beta subunits were coexpressed with the Na channel alpha subunit. Cells are maintained with standard tissue culture procedures and stable channel expression is maintained with 400 μg/ml Geneticin in the culture medium. […] Experiments are carried out at 24-27° C.
For both the Late INa and Peak INa assays, series resistance compensation is set to 50% and whole-cell compensation is performed automatically. […] Currents through open sodium channels are automatically recorded and stored in the DataXpress2 database (MDS Analytical Technologies, Sunnyvale, Calif.). Analysis is performed using DataXpress2 analysis software and data are compiled in Excel.
Compound stocks are routinely made in glass vials to 10 mM in dimethyl sulfoxide (DMSO). In some cases, when compounds are not soluble in DMSO, they are made in 100% ethanol. Stocks are sonicated as necessary. The extracellular solution for screening Late INa is composed of: 140 mM NaCl, 4 mM KCl, 1.8 mM CaCl2, 0.75 mM MgCl2, and 5 mM HEPES with pH adjusted to 7.4 using NaOH. The extracellular solution for screening Peak INa is composed of: 20 mM NaCl, 120 mM N-methyl-D glucamine, 4 mM KCl, 1.8 mM CaCl2, 0.75 mM MgCl2, and 5 mM HEPES with pH adjusted to 7.4 using HCl. The intracellular solution used to perfuse the inside of the cells for both the Late INa and Peak INa assays contains: 120 mM CsF, 20 mM CsCl, 5 mM EGTA, 5 mM HEPES and pH adjusted to 7.4 with CsOH. […] The 0Na extracellular solution used at the end of each experiment for the Late INa and Peak INa assays to measure baseline current contains: 140 mM N-methyl-D-glucamine; 4 mM KCl; 1.8 mM CaCl2; 0.75 mM MgCl2; 5 mM HEPES and pH was adjusted to 7.4 with HCl.
For the Late INa assay, sodium channels are activated every 10 seconds (0.1 Hz) by depolarizing the cell membrane to −20 mV for 250 milliseconds (ms) from a holding potential of −120 mV. In response to a −20 mV voltage step, typical Nav1.5 sodium currents activate rapidly to a peak negative current and then inactivate nearly completely within […].
All compounds are tested to determine their activity in blocking the late sodium current. Late INa current is generated by adding 10 μM Tefluthrin (pyrethroid) to the extracellular solution while recording Na currents For some experiments, 50 nM ATX II (sea anemone toxin), another late INa activator, was used to generate the late component. […] After establishing the whole cell recording configuration, late INa activators are added to each well 4 times over a 16-17 minute period so that the late component of the Na current reaches a stable value. […] Measurements are made at the end of exposure to the third compound addition and values are normalized to the current level when all Na^+ is removed from the extracellular solution after two additions of 0Na-ECF. Results are reported as percent block of late INa
For orientation: Patch clamp records ionic current or voltage across a cell membrane.

The values that follow come from patent US8952034B2, “Fused heterocyclic compounds as ion channel modulators” (Gilead Sciences, Inc., priority 2009, dated 2015).

Chain of wild-type human cardiac sodium channel, hNav1.5 (Q14524 whole entry): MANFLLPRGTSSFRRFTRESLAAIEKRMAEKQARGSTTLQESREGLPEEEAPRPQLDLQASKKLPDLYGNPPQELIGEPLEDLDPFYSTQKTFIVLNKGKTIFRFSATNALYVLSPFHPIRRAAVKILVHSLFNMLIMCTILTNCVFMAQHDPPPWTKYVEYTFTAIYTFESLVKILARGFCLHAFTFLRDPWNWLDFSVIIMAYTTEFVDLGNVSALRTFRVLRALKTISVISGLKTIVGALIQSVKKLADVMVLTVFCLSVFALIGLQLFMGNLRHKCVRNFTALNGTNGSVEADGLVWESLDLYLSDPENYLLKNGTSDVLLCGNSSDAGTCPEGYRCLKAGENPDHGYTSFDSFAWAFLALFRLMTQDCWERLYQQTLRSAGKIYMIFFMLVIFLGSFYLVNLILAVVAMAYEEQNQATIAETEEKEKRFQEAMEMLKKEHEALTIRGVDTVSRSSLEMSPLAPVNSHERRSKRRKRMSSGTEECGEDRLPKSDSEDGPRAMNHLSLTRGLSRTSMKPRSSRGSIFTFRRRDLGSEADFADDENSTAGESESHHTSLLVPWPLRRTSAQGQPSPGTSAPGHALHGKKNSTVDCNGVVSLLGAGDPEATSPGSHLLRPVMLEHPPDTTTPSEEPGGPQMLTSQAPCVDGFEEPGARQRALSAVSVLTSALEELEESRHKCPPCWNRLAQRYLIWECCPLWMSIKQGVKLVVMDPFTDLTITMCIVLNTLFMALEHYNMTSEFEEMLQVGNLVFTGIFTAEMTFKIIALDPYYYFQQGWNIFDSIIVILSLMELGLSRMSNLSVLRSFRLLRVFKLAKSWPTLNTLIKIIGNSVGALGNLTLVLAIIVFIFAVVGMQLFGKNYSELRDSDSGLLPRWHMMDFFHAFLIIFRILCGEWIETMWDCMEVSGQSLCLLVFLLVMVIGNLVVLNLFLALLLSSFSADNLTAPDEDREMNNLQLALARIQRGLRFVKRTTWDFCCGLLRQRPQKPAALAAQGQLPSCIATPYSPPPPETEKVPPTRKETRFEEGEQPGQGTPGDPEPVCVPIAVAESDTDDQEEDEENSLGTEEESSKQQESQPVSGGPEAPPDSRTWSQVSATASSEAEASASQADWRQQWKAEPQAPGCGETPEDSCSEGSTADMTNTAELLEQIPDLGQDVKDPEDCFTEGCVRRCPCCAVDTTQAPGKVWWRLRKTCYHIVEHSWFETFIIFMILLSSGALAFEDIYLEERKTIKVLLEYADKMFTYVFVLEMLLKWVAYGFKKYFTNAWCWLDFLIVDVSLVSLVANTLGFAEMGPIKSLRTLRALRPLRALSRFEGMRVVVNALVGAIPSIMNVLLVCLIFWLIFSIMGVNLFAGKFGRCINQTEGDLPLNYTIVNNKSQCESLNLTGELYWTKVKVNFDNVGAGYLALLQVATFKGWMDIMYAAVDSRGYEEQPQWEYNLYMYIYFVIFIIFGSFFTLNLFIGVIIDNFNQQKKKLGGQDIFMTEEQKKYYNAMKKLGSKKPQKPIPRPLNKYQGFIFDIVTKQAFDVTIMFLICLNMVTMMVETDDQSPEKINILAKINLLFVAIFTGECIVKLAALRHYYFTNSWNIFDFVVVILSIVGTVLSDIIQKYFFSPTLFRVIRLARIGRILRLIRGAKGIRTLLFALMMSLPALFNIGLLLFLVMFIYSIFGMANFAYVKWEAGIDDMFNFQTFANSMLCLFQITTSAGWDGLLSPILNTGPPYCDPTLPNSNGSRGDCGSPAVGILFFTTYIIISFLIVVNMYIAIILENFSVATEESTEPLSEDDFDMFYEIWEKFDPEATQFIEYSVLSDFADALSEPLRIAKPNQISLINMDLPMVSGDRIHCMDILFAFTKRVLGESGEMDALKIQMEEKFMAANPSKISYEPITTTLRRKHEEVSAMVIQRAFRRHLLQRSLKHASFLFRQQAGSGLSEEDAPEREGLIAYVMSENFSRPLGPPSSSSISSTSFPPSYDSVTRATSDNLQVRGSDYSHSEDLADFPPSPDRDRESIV

On to `FC(F)(F)c1nnc2ccc(-c3ccc(Oc4cnccn4)cc3)cn12` [BHN-94, 6-[4-(pyrazin-2-yloxy)phenyl]-3-(trifluoromethyl)[1,2,4]triazolo[4,3-a]pyridine], for which the inhibition at 10 µM is 27.5%.

Consider `FC(F)(F)c1nnc2ccc(-c3ccc(OC(F)(F)c4cccnc4)cc3)cn12` [BHN-271, 6-{4-[difluoro(pyridin-3-yl)methoxy]phenyl}-3-(trifluoromethyl)[1,2,4]triazolo[4,3-a]pyridine], for which the inhibition at 1 µM stood at 19.9%.

`COc1ccccc1SCC(C)COC(F)(F)c1nnc2ccc(-c3ccc(OC(F)(F)F)cc3)cn12` (stereo not drawn) [BHN-262, 3-(difluoro{3-[(2-methoxyphenyl)sulfanyl]-2-methylpropoxy}methyl)-6-[4-(trifluoromethoxy)phenyl][1,2,4]triazolo[4,3-a]pyridine]: the inhibition at 1 µM is 47.8%.

Take `CC(C)(O)c1ccc(-c2ccc3nnc(C(F)(F)F)n3c2)cc1` [BHN-48, 2-{4-[3-(trifluoromethyl)[1,2,4]triazolo[4,3-a]pyridin-6-yl]phenyl}propan-2-ol]: the inhibition at 10 µM came out at 18.9%.

For `FC(F)(F)Oc1ccc(-c2ccc3nnc(Oc4cccc(C(F)(F)F)c4)n3c2)cc1` [BHN-258], the “LateINa_1 uM (percent block of late INa)” value worked out at 80.1084%.

For the molecule `FC(F)(F)c1nnc2ccc(-c3ccc(Nc4ccc(Cl)cc4)cc3)cn12` [BHN-283, 4-chloro-N-{4-[3-(trifluoromethyl)[1,2,4]triazolo[4,3-a]pyridin-6-yl]phenyl}aniline], the inhibition at 1 µM amounted to 27.2%.

As for `FC(F)(F)c1ncc2ccc(-c3ccc(Oc4ccccc4)cc3)cn12` [BHN-7, 6-(4-phenoxyphenyl)-3-(trifluoromethyl)imidazo[1,5-a]pyridine], the inhibition at 10 µM was determined as 55.4%.

In the case of `FC(F)(F)c1nnc2ccc(-c3ccc(OC4CC4)cc3)cn12` [BHN-102, 6-[4-(cyclopropyloxy)phenyl]-3-(trifluoromethyl)[1,2,4]triazolo[4,3-a]pyridine], the inhibition at 1 µM came to 45.5%.

`C/C(=C\C#N)c1ccc(-c2ccc3nnc(C(F)(F)F)n3c2)cc1` [BHN-169, (2E)-3-{4-[3-(trifluoromethyl)[1,2,4]triazolo[4,3-a]pyridin-6-yl]phenyl}but-2-enenitrile]: the inhibition at 1 µM was found to be 30.5%.

As to `N#Cc1ccc(-c2nnc3ccc(-c4ccc(Oc5ccccc5)cc4)nn23)cc1` [BHN-40, 4-[6-(4-phenoxyphenyl)[1,2,4]triazolo[4,3-b]pyridazin-3-yl]benzonitrile], the inhibition at 10 µM is 38.2%.

Take `FC(F)(F)Oc1ccc(-c2ccc3nnc(C(F)(F)OCc4ccnc5ccccc45)n3c2)cc1` [BHN-212, 4-[(difluoro{6-[4-(trifluoromethoxy)phenyl][1,2,4]triazolo[4,3-a]pyridin-3-yl}methoxy)methyl]quinoline]: the inhibition at 1 µM came to 59.6%.

For the molecule `Cn1nc(COC(F)(F)c2nnc3ccc(-c4ccc(OC(F)(F)F)cc4)cn23)cc1-c1ccccc1` [BHN-224, 3-{difluoro[(1-methyl-5-phenyl-1H-pyrazol-3-yl)methoxy]methyl}-6-[4-(trifluoromethoxy)phenyl][1,2,4]triazolo[4,3-a]pyridine], the inhibition at 1 µM was 24.2%.

With `NS(=O)(=O)c1ccc(-c2nnc3ccc(-c4ccc(OC(F)(F)F)cc4)cn23)cc1` [BHN-73, 4-{6-[4-(trifluoromethoxy)phenyl][1,2,4]triazolo[4,3-a]pyridin-3-yl}benzenesulfonamide], the inhibition at 10 µM turned out to be 17.5%.

Turning to `FC(F)(F)Oc1ccc(-c2ccc3nnc(C(F)(F)OCc4cccc(-c5ncccn5)c4)n3c2)cc1` [BHN-305, 3-(difluoro{[3-(pyrimidin-2-yl)benzyl]oxy}methyl)-6-[4-(trifluoromethoxy)phenyl][1,2,4]triazolo[4,3-a]pyridine], the inhibition at 1 µM was 59.6%.

Take `FC(F)(F)Oc1ccc(-c2ccc3nnc(C(F)(F)OCc4cc(C(F)(F)F)nc5ccccc45)n3c2)cc1` [BHN-290, 4-[(difluoro{6-[4-(trifluoromethoxy)phenyl][1,2,4]triazolo[4,3-a]pyridin-3-yl}methoxy)methyl]-2-(trifluoromethyl)quinoline]: the inhibition at 1 µM stood at 34.6%.

Regarding `CC(OC(F)(F)c1nnc2ccc(-c3ccc(OC(F)(F)F)cc3)cn12)c1ccc(Cl)cc1Cl` (stereo not drawn) [BHN-247, 3-{[1-(2,4-dichlorophenyl)ethoxy](difluoro)methyl}-6-[4-(trifluoromethoxy)phenyl][1,2,4]triazolo[4,3-a]pyridine], the inhibition at 1 µM came out at 74.1%.

For `FC(F)(F)Oc1ccc(-c2ccc3nnc(C(F)(F)OCc4cc(-c5ccccc5Cl)on4)n3c2)cc1` [BHN-326, 3-[{[5-(2-chlorophenyl)-1,2-oxazol-3-yl]methoxy}(difluoro)methyl]-6-[4-(trifluoromethoxy)phenyl][1,2,4]triazolo[4,3-a]pyridine], the inhibition at 1 µM was found to be 52.4%.

`CC(C)Oc1cc(OC(F)(F)F)ccc1-c1ccc2nnc(C(F)(F)F)n2c1` [BHN-223, 6-[2-(propan-2-yloxy)-4-(trifluoromethoxy)phenyl]-3-(trifluoromethyl)[1,2,4]triazolo[4,3-a]pyridine]: the inhibition at 1 µM was 54.5%.

For the molecule `CC(OC(F)(F)c1nnc2ccc(-c3ccc(OC(F)(F)F)cc3)cn12)c1ccccn1` (stereo not drawn) [BHN-230, 3-{difluoro[1-(pyridin-2-yl)ethoxy]methyl}-6-[4-(trifluoromethoxy)phenyl][1,2,4]triazolo[4,3-a]pyridine], the inhibition at 1 µM turned out to be 42.3%.

`Cc1cc2nnc(C(F)(F)F)n2cc1-c1cccc(OC(F)(F)F)c1` [BHN-17, 7-methyl-6-[3-(trifluoromethoxy)phenyl]-3-(trifluoromethyl)[1,2,4]triazolo[4,3-a]pyridine]: the inhibition at 10 µM is 25.3%.

On to `COCC(F)(F)c1nnc2ccc(-c3ccc(OC(F)(F)F)cc3C)cn12` [BHN-200, 3-(1,1-difluoro-2-methoxyethyl)-6-[2-methyl-4-(trifluoromethoxy)phenyl][1,2,4]triazolo[4,3-a]pyridine], for which the inhibition at 1 µM worked out at 40.8%.

With `COc1cc(-c2ccc(OC(F)(F)F)cc2)cn2c(C(F)F)nnc12` [BHN-126, 3-(difluoromethyl)-8-methoxy-6-[4-(trifluoromethoxy)phenyl][1,2,4]triazolo[4,3-a]pyridine], the inhibition at 1 µM was found to be 26.9%.

Turning to `COc1cc(OC(F)(F)F)ccc1-c1ccc2nnc(C(F)(F)F)n2c1` [BHN-152, 6-[2-methoxy-4-(trifluoromethoxy)phenyl]-3-(trifluoromethyl)[1,2,4]triazolo[4,3-a]pyridine], the inhibition at 1 µM came out at 71.8%.

For the molecule `COCC(F)(F)c1nnc2ccc(C#Cc3ccc(OC(F)(F)F)cc3)cn12` [BHN-309, 3-(1,1-difluoro-2-methoxyethyl)-6-{[4-(trifluoromethoxy)phenyl]ethynyl}[1,2,4]triazolo[4,3-a]pyridine], the inhibition at 1 µM is 25.2%.

As to `FC(F)(F)c1nnc2ccc(-c3ccc(-c4ccccc4)cc3)cn12` [BHN-57, 6-(biphenyl-4-yl)-3-(trifluoromethyl)[1,2,4]triazolo[4,3-a]pyridine], the inhibition at 1 µM came out at 45.8% and the inhibition at 10 µM came to 39.5%.

Take `CC(C)c1nnc2ccc(-c3cc(F)c(Oc4ccccc4)c(F)c3)nn12` [BHN-201, 6-(3,5-difluoro-4-phenoxyphenyl)-3-(propan-2-yl)[1,2,4]triazolo[4,3-b]pyridazine]: the inhibition at 1 µM came to 29.7%.

Regarding `CS(=O)(=O)Nc1ccccc1-c1nnc2ccc(-c3ccc(OC(F)(F)F)cc3)cn12` [BHN-93, N-(2-{6-[4-(trifluoromethoxy)phenyl][1,2,4]triazolo[4,3-a]pyridin-3-yl}phenyl)methanesulfonamide], the inhibition at 10 µM was found to be 21%.

As to `COc1ccc(-c2ccc3cnc(C(F)(F)F)n3c2)cc1` [BHN-30, 6-(4-methoxyphenyl)-3-(trifluoromethyl)imidazo[1,5-a]pyridine], the inhibition at 1 µM was determined as 24.6% and the inhibition at 10 µM amounted to 77.3%.
